Assay results: article PMC6092513, “Mechanisms Underlying the Strong Inhibition of Muscle-Type Nicotinic Receptors by Tetracaine” (Frontiers in Molecular Neuroscience, 2018)

Experiments:
[1] = target: T1, muscle-type nicotinic acetylcholine receptor (nAChR) (Torpedo marmorata, UniProt P02711+Q6S3H8+Q6S3H9+Q6S3I0); test: two-electrode voltage clamp, ACh concentration-current curve in Xenopus oocytes bearing transplanted nAChRs; assay type: cell-based
T1 construct: gene CHRNA1; native heteropentameric receptor purified from electroplaques, reconstituted in asolectin lipids and transplanted to Xenopus oocytes; with beta1, gamma and delta nAChR subunits (CHRNB1, CHRNG, CHRND) with two alpha1
T1 sequence (P02711 25-461): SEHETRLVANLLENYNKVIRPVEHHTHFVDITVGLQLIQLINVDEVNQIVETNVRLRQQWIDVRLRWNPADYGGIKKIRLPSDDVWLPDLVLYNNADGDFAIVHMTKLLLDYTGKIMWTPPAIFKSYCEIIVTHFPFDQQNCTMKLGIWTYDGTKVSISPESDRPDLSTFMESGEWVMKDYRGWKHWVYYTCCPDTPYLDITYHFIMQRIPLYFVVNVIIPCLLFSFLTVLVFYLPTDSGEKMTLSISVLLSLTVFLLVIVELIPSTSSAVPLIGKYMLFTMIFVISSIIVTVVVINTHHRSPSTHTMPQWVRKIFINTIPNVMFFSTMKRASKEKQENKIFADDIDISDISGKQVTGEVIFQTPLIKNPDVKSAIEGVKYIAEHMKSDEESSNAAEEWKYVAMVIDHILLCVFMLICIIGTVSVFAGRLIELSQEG
T1 sequence (Q6S3I0 25-493): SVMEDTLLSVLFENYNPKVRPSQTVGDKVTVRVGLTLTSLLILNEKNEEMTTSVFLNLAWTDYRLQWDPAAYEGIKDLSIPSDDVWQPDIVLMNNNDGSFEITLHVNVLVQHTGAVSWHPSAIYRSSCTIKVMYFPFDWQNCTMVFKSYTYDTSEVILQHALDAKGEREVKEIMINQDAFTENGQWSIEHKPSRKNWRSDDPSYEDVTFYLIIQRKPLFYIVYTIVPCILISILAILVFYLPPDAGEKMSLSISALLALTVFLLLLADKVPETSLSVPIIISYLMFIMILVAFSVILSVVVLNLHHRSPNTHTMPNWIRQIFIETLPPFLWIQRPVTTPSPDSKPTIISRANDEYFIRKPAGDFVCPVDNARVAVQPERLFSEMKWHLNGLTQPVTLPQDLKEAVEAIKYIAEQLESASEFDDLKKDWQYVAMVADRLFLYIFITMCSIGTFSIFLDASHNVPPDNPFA
T1 sequence (Q6S3H9 18-505): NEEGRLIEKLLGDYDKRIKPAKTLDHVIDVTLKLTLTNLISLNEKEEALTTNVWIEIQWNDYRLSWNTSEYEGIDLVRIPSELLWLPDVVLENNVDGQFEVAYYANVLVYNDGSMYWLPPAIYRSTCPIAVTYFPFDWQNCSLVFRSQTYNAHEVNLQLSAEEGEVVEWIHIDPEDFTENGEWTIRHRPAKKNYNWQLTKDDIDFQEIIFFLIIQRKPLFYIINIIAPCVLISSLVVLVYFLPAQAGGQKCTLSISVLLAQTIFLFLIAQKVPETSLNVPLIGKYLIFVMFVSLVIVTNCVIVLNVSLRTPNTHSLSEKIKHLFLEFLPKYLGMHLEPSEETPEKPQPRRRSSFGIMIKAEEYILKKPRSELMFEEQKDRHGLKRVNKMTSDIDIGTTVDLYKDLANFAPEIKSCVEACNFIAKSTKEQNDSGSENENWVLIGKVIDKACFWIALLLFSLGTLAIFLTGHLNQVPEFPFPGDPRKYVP
T1 sequence (Q6S3H8 22-522): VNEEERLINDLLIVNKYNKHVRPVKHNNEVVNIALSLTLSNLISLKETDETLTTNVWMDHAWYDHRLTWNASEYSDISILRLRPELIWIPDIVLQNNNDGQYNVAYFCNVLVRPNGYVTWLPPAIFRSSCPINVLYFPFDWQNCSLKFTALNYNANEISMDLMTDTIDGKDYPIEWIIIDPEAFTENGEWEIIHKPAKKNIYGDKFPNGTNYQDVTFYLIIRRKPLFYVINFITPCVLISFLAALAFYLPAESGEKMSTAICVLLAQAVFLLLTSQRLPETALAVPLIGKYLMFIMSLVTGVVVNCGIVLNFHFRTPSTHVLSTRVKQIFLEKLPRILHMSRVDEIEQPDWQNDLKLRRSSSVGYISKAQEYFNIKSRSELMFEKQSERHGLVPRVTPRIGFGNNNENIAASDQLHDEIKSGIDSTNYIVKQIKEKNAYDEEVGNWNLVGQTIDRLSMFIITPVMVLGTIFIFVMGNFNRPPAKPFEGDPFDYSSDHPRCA

[2] = target: T1, muscle-type nicotinic acetylcholine receptor (nAChR); test: two-electrode voltage clamp of ACh-elicited peak currents ([…] ACh) in Xenopus oocytes bearing transplanted nAChRs; assay type: cell-based

CC(=O)OCC[N+](C)(C)C [ACh, acetylcholine]
EC50 [1]: 37 µM

CCCCNc1ccc(C(=O)OCCN(C)C)cc1 [Ttc, 2-(dimethylamino)ethyl 4-(butylamino)benzoate]
IC50 [2]: 0.7 µM
